Experimental findings from patent publication US20260166162A1, “CARBON CHAIN SUBSTANCE FOR REGULATING TRANSMEMBRANE TRANSPORT AND FLUIDITY OF CELL MEMBRANES, AND PREPARATION AND USE THEREOF” (priority 2022, published 2026) are described below.

Like-named read-outs stand apart in the source and are kept apart here.

One experiment concerns Epithelial cells. As to the kind of experiment: Interaction of GFP-labelled complexes with cell membrane of epithelial cells (Example II-52, Table II-30). Particulars: GFP-labelled complex, epithelial cells pretreated 4 hours, n=3. The experiment is classed as cell-based. Here is the method: The fatty acids were combined with water-soluble small molecules to form a complex, which were labeled with GFP fluorescence to detect cell membrane fluorescence. […] After the cells were stably adhered, the water-soluble fatty acid complexes in the following table were added to the cell culture medium. […] The medium with the drug was pipetted and replaced with normal DMEM medium. […] The green fluorescence intensity was analyzed by imageJ (see Table II-30, n=3).

The subject of experiment [1] is SARS-CoV-2 pseudovirus (B.1.526.2). Format: cell-based. Particulars: n=3.

Consider `CCCCCCC=CCCCCCCCC(=O)OCC1OC(O)C(O)C(O)C1O` (stereo not drawn) [Glucose-c-9-hexadecenoic acid], for which the Mean fluorescence intensity with Epithelial cells (0 Hours after medium replaced) was 126.3 ± 2.5; in the experiment with Epithelial cells (2 Hours after medium replaced), 113.5 ± 8.2; in the experiment with Epithelial cells (4 Hours after medium replaced) it was 105.5 ± 6.8; in the experiment on Epithelial cells (8 Hours after medium replaced), 87.5 ± 6.8; with Epithelial cells (12 Hours after medium replaced), 64.3 ± 5.1; with Epithelial cells (24 Hours after medium replaced), 43.5 ± 5.0.

Take `CCCCCCCCCCCCCCCC(=O)OC(C)C(N)C(=O)O` (stereo not drawn) [Thr-palmitic acid]: the Mean fluorescence intensity in the experiment with Epithelial cells (0 Hours after medium replaced) is 123.3 ± 6.6; in the experiment with Epithelial cells (2 Hours after medium replaced), 124.4 ± 7.5; with Epithelial cells (4 Hours after medium replaced), 119.5 ± 4.1; in the experiment on Epithelial cells (8 Hours after medium replaced), 69.2 ± 7.5; in the experiment on Epithelial cells (12 Hours after medium replaced), 45.3 ± 5.8; in the experiment with Epithelial cells (24 Hours after medium replaced), 42.5 ± 5.7.

As to `CCCCCCCCCCC(=O)OC(C)C(N)C(=O)O` (stereo not drawn) [Thr-undecanoic acid], the Mean fluorescence intensity came to 129.5 ± 7.6 in the experiment with Epithelial cells (0 Hours after medium replaced); 123.5 ± 3.5 in the experiment on Epithelial cells (2 Hours after medium replaced); 118.7 ± 5.7 in the experiment with Epithelial cells (4 Hours after medium replaced); 43.6 ± 9.3 in the experiment on Epithelial cells (8 Hours after medium replaced); 35.3 ± 4.0 in the experiment with Epithelial cells (12 Hours after medium replaced); 24.6 ± 3.8 in the experiment on Epithelial cells (24 Hours after medium replaced).

Consider “cholylglycine-Ricinoleic acid [cholylglycine-C18-1-OH]”, for which the “Inhibition rate (%)” value is reported as 72.59 ± 5.58% in experiment [1] (2 nM); 74.66 ± 1.25% in experiment [1] (5 nM); 78.34 ± 2.55% in experiment [1] (10 nM); 89.33 ± 2.25% in experiment [1] (50 nM); 88.76 ± 4.58% in experiment [1] (100 nM); -32.33 ± 0.57% in experiment [1] (1 μM). Further, the entries for the “Inhibition rate (%)” value in experiment [1] (10 μM), in experiment [1] (50 μM) and in experiment [1] (100 μM) were -54.26 ± 0.88%, 71.09 ± 0.58% and 73.68 ± 0.71%, respectively.

`CCCCCCCCCCCCCC(=O)OCC(O)C1OC(=O)C(O)=C1O` (stereo not drawn) [Vc-tetradecanoic acid]: the Mean fluorescence intensity came out at 115.4 ± 4.6 in the experiment with Epithelial cells (0 Hours after medium replaced); 100.2 ± 3.7 in the experiment with Epithelial cells (2 Hours after medium replaced); 87.2 ± 4.6 with Epithelial cells (4 Hours after medium replaced); 41.2 ± 9.4 in the experiment on Epithelial cells (8 Hours after medium replaced); 33.6 ± 5.2 in the experiment with Epithelial cells (12 Hours after medium replaced); 27.5 ± 7.3 in the experiment with Epithelial cells (24 Hours after medium replaced).

As for `CCCCCCCCCC(=O)OCC(N)C(=O)O` (stereo not drawn) [Ser-n-decanoic acid], the Mean fluorescence intensity came out at 115.4 ± 4.4 in the experiment with Epithelial cells (0 Hours after medium replaced); 113.3 ± 6.4 with Epithelial cells (2 Hours after medium replaced); 108.3 ± 4.4 in the experiment on Epithelial cells (4 Hours after medium replaced); 75.5 ± 2.7 in the experiment on Epithelial cells (8 Hours after medium replaced); 56.4 ± 2.4 with Epithelial cells (12 Hours after medium replaced); 39.5 ± 5.7 with Epithelial cells (24 Hours after medium replaced).

As for `CCCCC/C=C/C(=O)OCC1OC(O)C(O)C(O)C1O` (stereo not drawn) [Glucose-t-2-octenoic acid], the Mean fluorescence intensity with Epithelial cells (0 Hours after medium replaced) was determined as 99.4 ± 3.6; in the experiment with Epithelial cells (2 Hours after medium replaced), 92.5 ± 4.0; with Epithelial cells (4 Hours after medium replaced), 61.4 ± 4.2; with Epithelial cells (8 Hours after medium replaced), 42.3 ± 3.3; with Epithelial cells (12 Hours after medium replaced) it was 36.4 ± 4.3; with Epithelial cells (24 Hours after medium replaced), 32.4 ± 6.6.
